Experiments:
[1] = tested on: NF-κB; test: Activation of NF-κB in vivo by agonists; assay type: cell-based; conditions: agonists including PMA and ionomycin, TNF-α, and LPS
[2] = biological target: T1, IκBα kinase (Homo sapiens, UniProt O14920+O15111); test: ELISA-based IκBα kinase assay (ELISA scheme 1), MEKK1-activated partially purified kinase; assay type: biochemical; conditions: 10 μM inhibitor added to activated kinase before the biotinylated peptide substrate
T1 construct: IC50 against IκBα kinase activity; FI; Km of IκBα kinase for ATP
Experimental: IκBα kinase was prepared by first diluting S-100 HeLa cell extracts [1:10] with 50 mM HEPES pH 7.6 and 40% ammonium sulfate was added for 30 minutes on ice. Collected pellet was redissolved to a minimum volume, centrifuged, and filtered through a 0.22 μm filter. Sample was loaded onto a Superose-6 FPLC column equilibrated with 50 mM HEPES pH 7.6. 25 mM NaCl, 1 mM DTT, operated at 4° C. at 1 mL/min flow rate. Fractions were assayed for activity by the gel-shift assay. Active fractions peaked at ˜700 kD were collected, pooled, and protein concentration was determined.
ELISA scheme 1—Biotinylated peptide substrate at 500 μM was incubated with partially purified kinase alone, with 30 nM MEKK1Δ alone, or in combination for 2 hrs at 37° C. with 2.5 mM ATP, 10 mM DTT, 5 μM okadaic acid in the presence or absence of inhibitor. Kinase reactions were quenched by diluting [1:50] with PBS-BTE (PBS, 0.1% BSA, 0.05% Tween-20, 20 mM EDTA). […] Color development was performed with o-phenylenediamine dihydrochloride (Sigma FAST o-PD) and signals were recorded at 450 nm. Alternatively, peroxidase reaction was quenched with 3 N HCl and signals were read at 492 nm.
When control primary antibody which recognizes all IκBα species was used, all samples containing biotinylated peptide substrate produced peroxidase activity as detected by the o-PD conversion. […]

[3] = tested on: IκBα; test: Phosphorylation and ubiquitination of 35S-labeled IκBα in HeLa cell cytoplasmic extracts with okadaic acid; assay type: biochemical, human; conditions: 10 μM; in the presence of okadaic acid; FIG. 9
Excerpt: ^35S-labeled IκBα was synthesized by in vitro translation, and used as a substrate for phosphorylation (bottom panel, short exposure) and ubiquitination (top panel, long exposure) assays in HeLa cell cytoplasmic extracts in the presence of okadaic acid (Chen et al., Genes and Dev. 9:1586-1597 (1995)). Various agents were included in the reaction to test their ability to inhibit the phosphorylation and ubiquitination of IκBα.

[4] = tested on: IκBα kinase; test: Phosphorylation of IκBα by partially purified IκBα kinase (gel-based); assay type: biochemical, human
Experimental: Unless otherwise indicated, phosphorylation of IκBα was usually carried out at 37° C. for 1 hour in a reaction volume of 10 μl containing: an ATP regenerating system (50 mM Tris-HCl, pH 7.6, 5 mM MgCl2, 2 mM ATP, 10 mM creatine phosphate, 3.5 units/ml creatine kinase, 0.6 units/ml inorganic pyrophosphatase), 0.5 μl of in vitro translated ^35S-labeled IκBα, 2 μg/ml of recombinant RelA homodimer (to form complex with IκBα), 3 μM okadaic acid, 60 μM ubiquitin, 50 nM E1 (rabbit), 1 μM UBC4 (yeast) or GST-UBCh5 (human), and 0.5-3 μl of IκBα kinase containing fractions. In some experiments, HeLa fraction I (1 mg/ml) was used as a source of E2s. At the end of each reaction, SDS sample buffer was added to quench the reaction, and the samples were analyzed by SDS-PAGE (9%) followed by flourography. Phosphorylation of IκBα was quantitated by PhosphorImager analysis. Ubiquitination of IκBα has been described previously (Chen, Z. J. et al., Genes & Dev. 9:1586-1597 (1995)).

[5] = tested on: IκBα; conditions: previously shown (Beg 1993; Henkel 1993; Sun 1993); cited from earlier work
[6] = biological target: T1, IκBα kinase; test: Polypeptide inhibition of 35S-IκBα phosphorylation by IκBα kinase (gel-based); assay type: biochemical; conditions: ubiquitination-activated kinase, 37° C., 40 min, FIG. 20
Experimental: An N-terminal fragment (residues 5-72) of IκBα was expressed in E. coli as a recombinant protein containing a poly-histidine (His6) tag at the N-terminus.Protein purification was accomplished by nickel affinity chromatography. As a control, the full-length IκBα (SEQ ID NO:9; Haskill (1991) Cell 65:1281) was also expressed and purified in a similar fashion.
Recombinant full-length IκBα or IκBα (5-72) was added at indicated concentration to 10 μl of reaction mixture containing an ATP regenerating system (50 mM Tris at pH 7.6, 5 mM MgCl2, 2 mM ATP, 10 mM phosphocreatine, 3.5 U/ml creatine phosphokinase, 0.6 U/ml inorganic pyrophosphatase), 60 μM Ubiquitin, 50 nM E1, 1 μM UBC4, 0.5 μl of in vitro translated ^35S-IκBα, 0.5 μl of IκBα kinase (fraction 19 from Superdex 200 column), and 3 μM okadaic acid. After incubation at 37° C. for 40 min., the reaction was quenched by the addition of SDS sample buffer, separated by electrophoresis on 9% SDS-polyacrylamide gel, and then analyzed by fluorography.

T1 sequence (O14920 whole entry): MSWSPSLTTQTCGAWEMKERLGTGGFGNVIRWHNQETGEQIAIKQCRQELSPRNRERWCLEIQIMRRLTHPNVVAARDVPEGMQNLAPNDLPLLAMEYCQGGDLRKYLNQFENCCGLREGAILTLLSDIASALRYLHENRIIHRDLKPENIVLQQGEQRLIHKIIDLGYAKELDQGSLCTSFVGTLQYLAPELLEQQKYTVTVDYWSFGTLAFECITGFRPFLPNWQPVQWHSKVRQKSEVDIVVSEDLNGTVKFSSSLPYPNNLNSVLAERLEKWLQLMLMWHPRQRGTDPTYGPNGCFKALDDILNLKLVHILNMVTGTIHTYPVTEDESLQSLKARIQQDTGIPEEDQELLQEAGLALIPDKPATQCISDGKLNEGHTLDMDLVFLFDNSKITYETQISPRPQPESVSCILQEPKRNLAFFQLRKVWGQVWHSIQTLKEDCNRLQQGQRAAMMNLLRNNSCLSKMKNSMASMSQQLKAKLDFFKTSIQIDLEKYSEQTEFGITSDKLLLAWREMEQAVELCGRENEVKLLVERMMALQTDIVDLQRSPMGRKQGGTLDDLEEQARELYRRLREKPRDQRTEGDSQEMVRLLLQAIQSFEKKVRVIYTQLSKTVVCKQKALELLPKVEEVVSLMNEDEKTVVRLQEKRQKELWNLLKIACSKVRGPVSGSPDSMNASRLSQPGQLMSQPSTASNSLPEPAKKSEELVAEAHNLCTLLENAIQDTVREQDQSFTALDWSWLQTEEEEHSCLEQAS
T1 sequence (O15111 whole entry): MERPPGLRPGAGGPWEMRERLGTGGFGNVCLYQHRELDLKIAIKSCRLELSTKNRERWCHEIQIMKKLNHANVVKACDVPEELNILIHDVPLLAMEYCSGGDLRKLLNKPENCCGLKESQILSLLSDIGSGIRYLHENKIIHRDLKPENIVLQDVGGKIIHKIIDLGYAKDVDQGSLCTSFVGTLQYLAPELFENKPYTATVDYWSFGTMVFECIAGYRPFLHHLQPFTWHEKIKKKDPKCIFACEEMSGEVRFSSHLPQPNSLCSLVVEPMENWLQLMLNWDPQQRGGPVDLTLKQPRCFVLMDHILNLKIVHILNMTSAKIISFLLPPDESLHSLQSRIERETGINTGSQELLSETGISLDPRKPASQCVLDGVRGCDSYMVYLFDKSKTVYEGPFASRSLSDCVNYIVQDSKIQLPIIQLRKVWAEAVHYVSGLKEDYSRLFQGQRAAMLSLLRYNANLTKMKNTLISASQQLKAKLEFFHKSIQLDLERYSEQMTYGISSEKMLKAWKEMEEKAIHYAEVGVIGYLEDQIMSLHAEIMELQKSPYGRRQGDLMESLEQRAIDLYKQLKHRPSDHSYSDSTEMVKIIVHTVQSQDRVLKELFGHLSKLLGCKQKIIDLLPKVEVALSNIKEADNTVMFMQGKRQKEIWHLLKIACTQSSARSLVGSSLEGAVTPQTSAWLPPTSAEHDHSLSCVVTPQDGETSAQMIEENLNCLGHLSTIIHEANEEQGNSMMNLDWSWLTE
T1 sequence (Q9Y6K9 whole entry partner): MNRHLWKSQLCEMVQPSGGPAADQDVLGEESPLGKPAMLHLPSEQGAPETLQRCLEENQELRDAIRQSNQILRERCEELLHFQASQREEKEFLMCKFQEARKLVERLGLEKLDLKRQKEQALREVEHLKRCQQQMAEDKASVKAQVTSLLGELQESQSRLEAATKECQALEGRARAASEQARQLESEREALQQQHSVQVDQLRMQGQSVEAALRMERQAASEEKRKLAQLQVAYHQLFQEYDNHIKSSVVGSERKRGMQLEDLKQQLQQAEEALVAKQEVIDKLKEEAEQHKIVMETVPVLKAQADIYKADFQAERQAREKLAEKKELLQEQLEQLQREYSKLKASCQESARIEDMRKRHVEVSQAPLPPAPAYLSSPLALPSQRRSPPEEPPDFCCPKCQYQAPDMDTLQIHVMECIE

**Q.** What does the source list for `COC(=O)[C@@]1(O)C[C@H]2O[C@]1(C)n1c3ccccc3c3c4c(c5c6ccccc6n2c5c31)C(=O)NC4` [K252a]?
**A.** inhibition of the activation of NF-κB in vivo [1]: inhibit the activation of NF-κB in vivo; inhibition of MEKK1 dependent kinase activity [2]: fully inhibited; inhibition of phosphorylation and ubiquitination of IκBα in HeLa cell extracts [3]: Inhibit; inhibition of phosphorylation of IκBα by partially purified IκBα kinase [4]: inhibits

**Q.** For `Cc1ccc(S(=O)(=O)N[C@@H](CCCCN)C(=O)CCl)cc1` [TLCK, Nα-p-tosyl-L-lysine chloromethyl ketone], which “inhibition of phosphorylation and degradation of IκBα in vivo” value [5] is on record?
**A.** The value was “inhibit”.

**Q.** For “N-tosyl-L-phenylalanine chloromethyl ketone [TPCK]”, which “inhibition of phosphorylation and degradation of IκBα in vivo” value [5] is on record?
**A.** Its value is “inhibit”.

B1: IκBα (5-72): N-terminal fragment (residues 5-72) of IκBα, recombinant from E. coli with N-terminal His6 tag (protein)
chain: HHHHHHAERPQEWAMEGPRDGLKKERLLDDRHDSGLDSMKDEEYEQMVKELQEIRLEPQEVPRGSEPWKQQLTE
**Q.** For B1, which “inhibition of phosphorylation of 35S-IκBα by purified IκBα kinase” value (from here on “inhibition … by purified IκBα kinase”) [6] is on record?
**A.** The value was “inhibition”.

**Q.** And the “inhibition … by purified IκBα kinase” value ([6]; listed as amino acid residues 5-72 of IκBα)?
**A.** The value was “selectively inhibits”.

B2: full-length IκBα: recombinant full-length IκBα (SEQ ID NO:9), expressed and purified as control (protein, listed as Homo sapiens)
chain: MFQAAERPQEWAMEGPRDGLKKERLLDDRHDSGLDSMKDEEYEQMVKELQEIRLEPQEVPRGSEPWKQQLTEDGDSFLHLAIIHEEKALTMEVIRQVKGDLAFLNFQNNLQQTPLHLAVITNQPEIAEALLGAGCDPELRDFRGNTPLHLACEQGCLASVGVLTQSCTTPHLHSILKATNYNGHTCLHLASIHGYLGIVELLVSLGADVNAQEPCNGRTALHLAVDLQNPDLVSLLLKCGADVNRVTYQGYSPYQLTWGRPSTRIQQQLGQLTLENLQMLPESEDEESYDTESEFTEFTEDELPYDDCVFGGQRLTL
**Q.** Which “inhibition … by purified IκBα kinase” value [6] does the source give for B2 here?
**A.** Its value is “inhibition”.

— patent US7452977B2, “Antibody to a kinase capable of site-specific phosphorylation of IκBα” (Millennium Pharmaceuticals, Inc., priority 1996, dated 2008)
